The values below are quoted from earlier work in US20260356826A1, “SALTS OF AMINO QUINAZOLINE DERIVATIVES” (CHIESI FARMACEUTICI S.P.A., priority 2023, published 2026).

The data set has as its system P2X3. The note with it: disclosed in WO2020239951 A1; cited from earlier work.

In the case of `COc1cc(-c2ccc(F)cn2)cc2c(N[C@H](C)c3noc(C)n3)ncnc12` [Compound A, (R)-6-(5-fluoropyridin-2-yl)-8-methoxy-N-(1-(5-methyl-1,2,4-oxadiazol-3-yl)ethyl)quinazolin-4-amine], the P2X3 inhibition entry was “potent and selective P2X3 inhibitor”.
